Results reported in ChEMBL document CHEMBL5537193, “Multitargeting HDAC Inhibitors Containing a RAS/RAF Protein Interfering Unit” (J Med Chem, 2024).
Calls of active or inactive are those of the source. No cut-off for these calls is given here.

Tests used:
HT-29 [1] = assay: Inhibition of MAPK signaling pathway in human HT-29 cells assessed as inhibition of C-RAF phosphorylation at Ser338 residue at 2 uM incubated for 24 hrs by Western blot analysis; assay type: cell-based
HT-29 [2] = assay: Effect on alpha-tubulin expression in tumor of BALB/c mouse xenografted with human HT-29 cells at 7.5 to 15 mg/kg, ip administered once every 2 days for 12 times and measured after 24 days by Western blot analysis; assay type: functional, organism-based; conditions: Neoplasm, dose 7.5-15 mg/kg, time 24.0 day

COc1cc(OC)c(/C=C/S(=O)(=O)Cc2ccc(OC)c(NCC(=O)NO)c2)c(OC)c1
inhibition (HT-29 [1]): Active | Activity (HT-29 [2]): inactive
